Where two headings read alike, the source gives them in different places.
Key:
[1] = Single-dose pharmacokinetics in healthy volunteers under fasting and fed (high-fat breakfast) conditions, plasma concentrations by HPLC-MS, non-compartmental analysis; type: in vivo, human; design: Ke: unit not given here; conditions: for AUC(0-inf) / CL/F / Vd/F / half-life / Cmax / Tmax: human, plasma; for Cmax: read-out: Cmax
From the text: The bioequivalence clinical trials were phase I, randomized, open-label, crossover, single-centre, with two periods separated by a 7-day washout stage. Subjects were randomised to one of the two treatment sequences, RT or TR where R was the reference formulation and T was the test formulation. Each of the clinical trial was crossover for evaluation of a test formulation compared to a reference formulation either under fed or fasting conditions. […] The treatments were allocated in a balanced manner on every inclusion day (blocks of 4 subjects). Our study adheres to CONSORT guidelines. […] Sample processing, genotyping for CYP2C19 and drug quantification were performed according to Román et al. […] Pharmacokinetic parameters were estimated from the plasma concentration–time data by non-compartmental analysis (WinNonlin Professional, version 2.0., Pharsight Corporation, USA) as reported by Román et al. […] WinNonLin Professional software version 2.0 was used for the statistical analysis. Pharmacokinetic parameters were log-transformed, and AUC and Cmax were adjusted for dose and weight. The values of pharmacokinetic parameters were expressed as mean ± standard deviation.

[2] = 40 mg; ref [27] Huber et al.; cited from earlier work
[3] = both sexes, oral, only CYP2C19*1/*1 subjects, Fast, men and women, mean ± SD
[4] = both sexes, oral, only CYP2C19*1/*1 subjects, Fed, men and women, mean ± SD
[5] = both sexes, po, Fast, all subjects, single oral dose, mean ± SD
[6] = both sexes, po, Fed (high-fat breakfast), all subjects, single oral dose, mean ± SD
[7] = female, oral, only CYP2C19*1/*1 subjects, Fast, women, mean ± SD
[8] = female, oral, only CYP2C19*1/*1 subjects, Fed, women, mean ± SD
[9] = female, po, Fast, women, single oral dose, mean ± SD
[10] = female, po, Fed, women, single oral dose, mean ± SD
[11] = male, oral, only CYP2C19*1/*1 subjects, Fast, men, mean ± SD
[12] = male, oral, only CYP2C19*1/*1 subjects, Fed, men, mean ± SD
[13] = male, po, Fast, men, single oral dose, mean ± SD
[14] = male, po, Fed, men, single oral dose, mean ± SD

COc1ccnc(C[S+]([O-])c2nc3ccc(OC(F)F)cc3[nH]2)c1OC (stereo not drawn) [Pantoprazole, pantoprazole]
Ke ([1]; Fast, all subjects, single oral dose, mean ± SD): 0.61 ± 0.21 | Ke ([1]; Fast, men, single oral dose, mean ± SD): 0.56 ± 0.23 | Ke ([1]; Fast, women, single oral dose, mean ± SD): 0.65 ± 0.18 | Ke ([1]; Fed (high-fat breakfast), all subjects, single oral dose, mean ± SD): 0.63 ± 0.21 | Ke ([1]; Fed, men, single oral dose, mean ± SD): 0.61 ± 0.23 | Ke ([1]; Fed, women, single oral dose, mean ± SD): 0.65 ± 0.19 | AUC(0-inf) [1, 3]: 6090 ± 2920 ng·h/mL | CL/F [1, 3]: 2 mL/min/kg | Vd/F [1, 3]: 0.18 ± 0.03 L/kg | half-life [1, 3]: 72 ± 24 min | Cmax [1, 3]: 2540 ± 836 ng/mL | Tmax ([1]; both sexes, oral, only CYP2C19*1/*1 subjects, Fast, men and women, mean ± SD, read-out: Tmax): 3 ± 0.7 h | AUC(0-inf) [1, 4]: 4690 ± 2300 ng·h/mL | CL/F [1, 4]: 2.67 mL/min/kg | Vd/F [1, 4]: 0.24 ± 0.05 L/kg | half-life [1, 4]: 72 ± 30 min | Cmax [1, 4]: 2660 ± 531 ng/mL | Tmax ([1]; both sexes, oral, only CYP2C19*1/*1 subjects, Fed, men and women, mean ± SD, read-out: Tmax): 5.7 ± 1.2 h | Tmax ([1]; both sexes, oral, under fasting conditions, range among subjects, read-out: Tmax range): 1.5 to 5 h | Tmax ([1]; both sexes, oral, under fed conditions, range among subjects, read-out: Tmax range): 1 to 21 h | AUC(0-inf) [1, 5]: 6950 ± 3290 ng·h/mL | CL/F [1, 5]: 1.83 mL/min/kg | Vd/F [1, 5]: 0.17 ± 0.03 L/kg | half-life [1, 5]: 78 ± 36 min | Cmax [1, 5]: 2780 ± 862 ng/mL | Tmax ([1]; both sexes, po, Fast, all subjects, single oral dose, mean ± SD, read-out: Tmax): 3 ± 0.8 h | AUC(0-inf) [1, 6]: 4630 ± 2020 ng·h/mL | CL/F [1, 6]: 2.67 mL/min/kg | Vd/F [1, 6]: 0.26 ± 0.1 L/kg | half-life [1, 6]: 78 ± 36 min | Cmax [1, 6]: 2650 ± 603 ng/mL | Tmax ([1]; both sexes, po, Fed (high-fat breakfast), all subjects, single oral dose, mean ± SD, read-out: Tmax): 7 ± 3 h | AUC lower under fed conditions ([1]; fed vs fasting, all subjects): 33% | Delay of mean Tmax (absorption) by food ([1]; fed vs fasting, all subjects): around 4 h | Delay of Tmax by food ([1]; fed vs fasting, only subjects with CYP2C19*1/*1): 2.7 h | AUC(0-inf) [1, 7]: 7820 ± 2700 ng·h/mL | CL/F [1, 7]: 1.83 mL/min/kg | Vd/F [1, 7]: 0.16 ± 0.04 L/kg | half-life [1, 7]: 66 ± 12 min | Cmax [1, 7]: 3230 ± 685 ng/mL | Tmax ([1]; female, oral, only CYP2C19*1/*1 subjects, Fast, women, mean ± SD, read-out: Tmax): 2.9 ± 0.8 h | AUC(0-inf) [1, 8]: 4910 ± 2190 ng·h/mL | CL/F [1, 8]: 2.83 mL/min/kg | Vd/F [1, 8]: 0.25 ± 0.06 L/kg | half-life [1, 8]: 66 ± 18 min | Cmax [1, 8]: 2790 ± 476 ng/mL | Tmax ([1]; female, oral, only CYP2C19*1/*1 subjects, Fed, women, mean ± SD, read-out: Tmax): 6.2 ± 1.1 h | AUC(0-inf) [1, 9]: 7320 ± 2710 ng·h/mL | CL/F [1, 9]: 1.83 mL/min/kg | Vd/F [1, 9]: 0.16 ± 0.03 L/kg | half-life [1, 9]: 66 ± 18 min | Cmax [1, 9]: 3240 ± 859 ng/mL | Tmax ([1]; female, po, Fast, women, single oral dose, mean ± SD, read-out: Tmax): 2.9 ± 0.8 h | AUC(0-inf) [1, 10]: 4660 ± 1790 ng·h/mL | CL/F [1, 10]: 2.83 mL/min/kg | Vd/F [1, 10]: 0.28 ± 0.12 L/kg | half-life [1, 10]: 72 ± 42 min | Cmax [1, 10]: 2700 ± 614 ng/mL | Tmax ([1]; female, po, Fed, women, single oral dose, mean ± SD, read-out: Tmax): 8.4 ± 3.7 h | AUC(0-inf) [1, 11]: 4780 ± 2470 ng·h/mL | CL/F [1, 11]: 2.33 mL/min/kg | Vd/F [1, 11]: 0.2 ± 0.02 L/kg | half-life [1, 11]: 78 ± 30 min | Cmax [1, 11]: 2020 ± 493 ng/mL | Tmax ([1]; male, oral, only CYP2C19*1/*1 subjects, Fast, men, mean ± SD, read-out: Tmax): 3 ± 0.7 h | AUC(0-inf) [1, 12]: 4520 ± 2520 ng·h/mL | CL/F [1, 12]: 2.5 mL/min/kg | Vd/F [1, 12]: 0.23 ± 0.03 L/kg | half-life [1, 12]: 72 ± 36 min | Cmax [1, 12]: 2560 ± 581 ng/mL | Tmax ([1]; male, oral, only CYP2C19*1/*1 subjects, Fed, men, mean ± SD, read-out: Tmax): 5.3 ± 1.1 h | AUC(0-inf) [1, 13]: 6580 ± 3830 ng·h/mL | CL/F [1, 13]: 1.83 mL/min/kg | Vd/F [1, 13]: 0.18 ± 0.03 L/kg | half-life [1, 13]: 90 ± 42 min | Cmax [1, 13]: 2320 ± 581 ng/mL | Tmax ([1]; male, po, Fast, men, single oral dose, mean ± SD, read-out: Tmax): 3.1 ± 0.8 h | AUC(0-inf) [1, 14]: 4610 ± 2270 ng·h/mL | CL/F [1, 14]: 2.5 mL/min/kg | Vd/F [1, 14]: 0.25 ± 0.08 L/kg | half-life [1, 14]: 78 ± 30 min | Cmax [1, 14]: 2590 ± 601 ng/mL | Tmax ([1]; male, po, Fed, men, single oral dose, mean ± SD, read-out: Tmax): 5.6 ± 1.1 h | Ke ([1]; only CYP2C19*1/*1 subjects, Fast, men and women, mean ± SD): 0.64 ± 0.19 | Ke ([1]; only CYP2C19*1/*1 subjects, Fast, men, mean ± SD): 0.64 ± 0.23 | Ke ([1]; only CYP2C19*1/*1 subjects, Fast, women, mean ± SD): 0.63 ± 0.12 | Ke ([1]; only CYP2C19*1/*1 subjects, Fed, men and women, mean ± SD): 0.67 ± 0.20 | Ke ([1]; only CYP2C19*1/*1 subjects, Fed, men, mean ± SD): 0.67 ± 0.25 | Ke ([1]; only CYP2C19*1/*1 subjects, Fed, women, mean ± SD): 0.68 ± 0.14 | effect of concomitant intake of a standard breakfast on bioavailability [2]: no effect on bioavailability

Reference: paper PMC7382816 (BMC Pharmacology & Toxicology, 2020)
